# Measured values from patent US9198957B2, “Treatment and prevention of bacterial vaginosis and Gardnerella vaginalis infections” (The Trustees of Columbia University in the City of New York, priority 2011, dated 2015).
# How the values were obtained:
# [1] = reference (77); cited from earlier work
# Atopobium vaginae = settings: reference (80); cited from earlier work
# strain 49145 = experiment: MIC by E-test, strain 49145; type: cell-based, Gardnerella vaginalis; settings: Mueller-Hinton agar with 5% sheep's blood, CLSI, repeated twice
# [2] = tested on: BV and G. vaginalis infections; settings: cited from earlier work
# strain ARG3 = experiment: MIC by E-test, strain ARG3; type: cell-based, Gardnerella vaginalis; settings: Mueller-Hinton agar with 5% sheep's blood, CLSI, repeated twice
# [3] = tested on: biofilms made by G. vaginalis; settings: Patterson et al. 2007; cited from earlier work
# Gardnerella biofilms = experiment: Fluorescence microscopy of DNase-treated biofilms; type: cell-based, Gardnerella vaginalis; settings: DNase-treated vs untreated biofilms
# G. Vaginalis ARG37 = experiment: Murine model of vaginal colonization; type: in vivo; settings: co-inoculation with DNase, mice, strain ARG37; FIG. 16
# Text: The same strategy works in the complex environment of the lower genital tract in murine models of vaginal colonization. Models for vaginal colonization of mice with G. Vaginalis and group B Streptococcus have been developed. […] FIG. 16. These models will important in prophylactic use in at-risk populations including, but not limited to, pregnant women, those individuals infected with sexually transmitted diseases including HIV, and those individuals with recurrent BV.
# [4] = tested on: ATCC Gardnerella strain 49145 biofilms; experiment: Liberation of bacteria from biofilm into supernatant / bacterial killing (colony counts); type: cell-based, Gardnerella vaginalis
# Experimental: Further experiments were conducted to assess whether there is an improved effect on biofilm formation and breakdown by the combined administration of DNase and antibiotics against Gardnerella. The y axis plots the % of biofilm absorbance A462 for each condition. […] The minimum inhibitory concentration (MIC) for the antibiotics was measured by E-testing the relevant strains. Colony counts were performed on both the supernatant and the biofilm components of the culture, and a one-way ANOVA with Bonferroni post-tests were performed using Prism (Graphpad) where DNase was administered at time=24 hours.
# [5] = tested on: Gardnerella strain 49145 biofilm; experiment: Inhibition of newly forming biofilm (safranin stain, A462), strain 49145; type: cell-based, Gardnerella vaginalis; settings: for reduction in biofilm formation (% biofilm density): FIG. 6
# Experimental: (§1) Biofilms of multiple Gardnerella strains [G. Vaginalis is the only species in the genus Gardnerella.] were grown, separately, in vitro in 96-well plates in BHI-supplemented media. Bovine pancreas DNase was added in varying concentrations to biofilm cultures at 0 hours (newly forming biofilms) and 24 hours (established biofilms.) The biofilms were washed, the supernatant was removed, and the biofilms were stained with safranin and solubilized in acetic acid. Biofilm absorbance at A462 nm was measured with a spectrophotometer, which method quantifies the amount of safranin stain taken up by the biofilm. DNase-treated and untreated biofilms were also grown in chamber slides and DAPI staining was performed for fluorescence microscopy.
# (§2) Biofilms were grown in the presence of varying concentrations of antibiotic and DNase administered at t=0 hours to test the effect of the agents on biofilm formation. To test the effects on the degradation of established biofilms, the agents were administered at t=24 hours.
# All cultures and biofilms were grown in ‘biofilm media’ (BHI media+0.3% starch, 0.3% glucose, 0.5 mcg/mL amphotericin B) at 37° C. and 5% CO2. Liquid cultures of strains 49145 or ARG3 were grown overnight to a standardized OD600 of 0.6 and diluted 1:10 prior to aliquoting for biofilms. Cultures were aliquoted into 96-well plates as follows:
# (§3) 180 μL of bacteria and 20 μL of DNase at varying concentrations (1:10 dilutions of 1 mg/mL to final concentrations in the wells as labeled in the figures) or PBS as a control (total volume always 200 μL) were added together at t=0 hours and incubated for 24 hours. They were then washed, stained with safranin and solubilized with ascetic acid, with measurement of absorbance at 462 nm to quantify density of stained material.
# 160 μL of culture, 20 µL of antibiotic at varying concentrations (1:10 and 2-fold dilutions to final concentrations in wells as labeled in the figures), and 20 μL of DNase at varying concentrations (1:10 dilutions as above) with 20-40 μL of PBS used when necessary for controls (wells without antibiotic, DNase, or both) were added to wells at t=0 hours and incubated for 24 hours as above. Biofilms were quantified as above.
# [6] = tested on: Gardnerella strain ARG3 biofilm; experiment: Inhibition of newly forming biofilm (safranin stain), strain ARG3; type: cell-based, Gardnerella vaginalis; settings: DNase 10 μg/ml and 100 μg/ml, time=0 hours; FIG. 2
# Experimental: as §1
# Biofilms were grown in the presence of varying concentrations of antibiotic and DNase administered at t=0 hours to test the effect of the agents on biofilm formation. […]
# 180 μL of bacteria and 20 μL of DNase at varying concentrations (1:10 dilutions of 1 mg/mL to final concentrations in the wells as labeled in the figures) or PBS as a control (total volume always 200 μL) were added together at t=0 hours and incubated for 24 hours. They were then washed, stained with safranin and solubilized with ascetic acid, with measurement of absorbance at 462 nm to quantify density of stained material. […]
# [7] = tested on: group B Streptococcus biofilm; experiment: Inhibition of group B Streptococcus biofilm formation (A462); type: cell-based; settings: DNase 100 μg/ml, t=0 hours; FIG. 17
# Experimental: as §1, §3
# The results depicted in FIG. 17 show the dose-response inhibition of group B Streptococcus biofilm formation by DNase that was administered at t=0 hours as assessed by measuring the absorbance of light at 462 nm (A462).
# [8] = tested on: established Gardnerella strain 49145 biofilms; experiment: Breakdown of established (24 h) biofilm, strain 49145; type: cell-based, Gardnerella vaginalis; settings: DNase administered at t=24 hours; FIG. 3
# Experimental: as §1, §2
# (§4) All cultures and biofilms were grown in ‘biofilm media’ (BHI media+0.3% starch, 0.3% glucose, 0.5 mcg/mL amphotericin B) at 37° C. and 5% CO2. Liquid cultures of strains 49145 or ARG3 were grown overnight to a standardized OD600 of 0.6 and diluted 1:10 prior to aliquoting for biofilms. […]
# (§5) For quantification as above, antibiotic concentrations were chosen based on the MIC (⅛-4× MIC).
# [9] = tested on: established Gardnerella strain ARG3 biofilms; experiment: Breakdown of established (24 h) biofilm, strain ARG3; type: cell-based, Gardnerella vaginalis; settings: DNase administered at t=24 hours; FIG. 4
# Experimental: as §1, §2, §4, §5
molecule,measurement,setting,value
CCS(=O)(=O)CCn1c([N+](=O)[O-])cnc1C [Tinidazole],half-life,[1],12 to 14 h
CC1(C)S[C@@H]2[C@H](NC(=O)[C@H](N)c3ccccc3)C(=O)N2[C@H]1C(=O)O [ampicillin],Etest susceptibility concentration (range),Atopobium vaginae,<0.016 to 0.94 µg/mL
CC[C@H]1OC(=O)[C@H](C)[C@@H](O[C@H]2C[C@@](C)(OC)[C@@H](O)[C@H](C)O2)[C@H](C)[C@@H](O[C@@H]2O[C@H](C)C[C@H](N(C)C)[C@H]2O)[C@](C)(O)C[C@@H](C)CN(C)[C@H](C)[C@@H](O)[C@]1(C)O [azithromycin],Etest susceptibility concentration (range),Atopobium vaginae,<0.016 to 0.32 µg/mL
O=C(O)c1cn(C2CC2)c2cc(N3CCNCC3)c(F)cc2c1=O [ciprofloxacin],Etest susceptibility concentration (range),Atopobium vaginae,0.023 to 0.25 µg/mL
CC(=O)NC[C@H]1CN(c2ccc(N3CCOCC3)c(F)c2)C(=O)O1 [linezolid],Etest susceptibility concentration (range),Atopobium vaginae,0.016 to 0.125 µg/mL
Cc1ncc([N+](=O)[O-])n1CCO [metronidazole],Minimum Inhibitory Concentration (MIC),strain 49145,4
same,half-life,[1],6 to 7 h
same,cure rates (by Amsel criteria),"[2]; at four weeks, oral regimens for one week",approximately 80%
same,early rates of clinical cure,[2]; multiple divided-dose oral regimens for one week,> 90%
same,Minimum Inhibitory Concentration (MIC),strain ARG3,4
DNase,reduction in biofilm formation or breakdown,[3],no reduction in biofilm formation or breakdown
same,biofilm matrix and overall density by fluorescence microscopy,Gardnerella biofilms,decrease in the biofilm matrix and in overall density
same,establishment of vaginal colonization,G. Vaginalis ARG37,inhibited the establishment of colonization
same,bacterial killing in biofilm cultures,[4]; DNase alone,does not kill the bacteria
same,release of biofilm-embedded bacteria,"[4]; DNase, FIGS. 13-15",released into the supernatant
same,extent of biofilm formation (A462),"[5]; DNase 10 μg/ml and 100 μg/ml, administered at time=0 hours, FIG. 1",dramatic reduction
same,reduction in biofilm formation (% biofilm density),"[5]; DNase alone 1 μg/mL, t=0 hours",30%
same,reduction in biofilm formation (A462),"[5]; DNase alone 1 μg/mL, t=0 hours, FIG. 8 (C)",30%
same,reduction in biofilm formation (% biofilm density),"[5]; DNase alone 100 μg/mL, t=0 hours",75%
same,extent of biofilm formation (% biofilm density),[6],dramatic reduction
same,extent of biofilm formation (A462),[7],dramatic reduction
same,breakdown of established biofilms,[8],dose-dependent breakdown
same,breakdown of established biofilms,[9],dose-dependent breakdown
penicillin,Etest susceptibility concentration (range),Atopobium vaginae,0.008 to 0.25 µg/mL
